Legend:
m4 receptors = m4 receptors (Homo sapiens, UniProt P08173); assay type: cell-based; conditions: CHO m4 cells treated with pertussis toxin
[1] = biological target: muscarinic cholinergic receptors; assay: ^3H-oxotremorine-M binding inhibition; conditions: inhibition of binding of ^3H-oxotremorine-M; read-out: inhibition costant (Ki)

m4 receptors, sequence (P08173 whole entry): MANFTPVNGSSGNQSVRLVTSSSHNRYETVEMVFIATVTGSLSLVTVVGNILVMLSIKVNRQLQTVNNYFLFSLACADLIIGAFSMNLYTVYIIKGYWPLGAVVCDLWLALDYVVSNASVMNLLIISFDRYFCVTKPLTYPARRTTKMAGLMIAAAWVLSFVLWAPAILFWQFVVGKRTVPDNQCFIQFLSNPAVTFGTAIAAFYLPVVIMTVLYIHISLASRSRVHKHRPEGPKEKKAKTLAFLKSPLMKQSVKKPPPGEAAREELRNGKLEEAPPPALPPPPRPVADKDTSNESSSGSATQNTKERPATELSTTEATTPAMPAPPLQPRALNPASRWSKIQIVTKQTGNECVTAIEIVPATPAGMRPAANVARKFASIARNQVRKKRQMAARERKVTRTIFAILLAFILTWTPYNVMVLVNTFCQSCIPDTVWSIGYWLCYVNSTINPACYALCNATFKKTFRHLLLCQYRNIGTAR

CCCCCCOc1nsnc1C1=CCCN(C)C1 [Xanomeline, 3-(4-hexyloxy-1,2,5-thiadiazol-3-yl)-1,2,5,6-tetrahydro-1-methylpyridine]
formation of cAMP (m4 receptors): efficaciously and potently stimulated the formation of cAMP | Ki [1]: 2 nM
